# Bridges are numbered along the chain shown (N, C = ends). Where no end group is shown, it is not given here.
# Legend:
# NFkB pathway = test: NFkB expression in Jurkat-Dual reporter cells, luciferase (IL-10 mimetic peptides); format: cell-based; conditions: without activating molecules; 12, 24 and 48 hours; different concentrations
# Description: (§1) In order to investigate the ability of synthetic peptides with affinity to the Interleukin-10 receptor to interfere in the NFkB, IFN and TLR4 pathways, reporter cell lines were used. To analyze whether the isolated peptides (without activation molecules) could induce any type of activation, the isolated peptides were tested in cell lines during 12, 24 and 48 hours of treatment. […] As an example, FIG. 13A, FIG. 13B, and FIG. 13C show an analysis of NFkB expression after stimulation with the synthesized IL-10 receptor affinity synthetic peptides described herein. Cells were treated for 12, 24 and 48 hours with the synthesized peptides Pep 1-IL10, Pep 2-IL10, Pep 3-IL10 and Pep 4-IL10, at different concentrations, without activating molecules. Luciferase was then measured after 12 hours of treatment (FIG. 13A), 24 hours of treatment (FIG. 13B) and 48 hours of treatment (FIG. 13C). […] TNF-α (200 ng/mL) was used as a positive control.
# The assay was then carried out using TNF-α as activation molecule not only in the control, but after a pretreatment with the synthesized peptides Pep 1-IL10, Pep 2-IL10, Pep 3-IL10 and Pep 4-IL10, at different concentrations. All peptides were able to modulate NFKB activation after 12, 24 and 48 hours, with different results depending on the concentrations used. […] In the assays shown by FIGS. 14 A, B and C, analysis of NFkB expression was performed in Jurkat-Dual reporter cells. Cells were treated for 1 hour with peptides and TNF-α (200 ng/ml) added. Luciferase was measured after 12 hours of treatment (FIG. 14A), 24 hours of treatment (FIG. 14B) and 48 hours of treatment (FIG. 14C).
# Another assay was then performed in which cells were pretreated with TNF-α and the synthesized peptides Pep 1-IL10, Pep 2-IL10, Pep 3-IL10 and Pep 4-IL10, at different concentrations, were added later. All peptides were able to modulate NFKB activation after 12, 24 and 48 hours, with different results depending on the concentrations used. The most significant results will be described below. […] After 48 hours of treatment, Pep 1-IL-10 at a concentration of 0.001 μM (P<0.05) was the one that obtained a result with the highest statistical significance in the decrease of NFKB signaling (FIG. 15C). In the assays shown by FIGS. 15 A, B and C, analysis of NFkB expression was performed in Jurkat-Dual reporter cells. Cells were treated for 1 hour with TNF-α (200 ng/ml) and peptides were added. Luciferase was measured after 12 hours of treatment (FIG. 15A), 24 hours of treatment (FIG. 15B) and 48 hours of treatment (FIG. 15C). TNF-α (200 ng/mL) was used as a positive control and rlL-10 (recombinant Interleukin-10) (0.4 ng/mL) as a negative control. *P<0.05; **P<0.005; ***P<0.0005.
# IFN signaling pathway = IFN signaling pathway in Jurkat-Dual reporter cells, SEAP production; format: cell-based; conditions: after 12, 24 and 48 hours; results depend on concentration
# Description: as §1
# The most significant results will be described below. […] When cells were pretreated with IFN, although peptides at some concentrations indicated results, they were not statistically sufficient. Therefore, we cannot confirm whether they were able to interfere with pathway activation (FIGS. 17 A, B and C) in an equal or better way than the negative control (rIL-10). In the assays shown by FIGS. 16 (A, B and C) and FIGS. 17 (A, B and C), analysis of IFN expression was performed in Jurkat-Dual reporter cells. In the assays shown by FIGS. 16 A, B and C, cells were treated for 1 hour with peptides with further addition of IFN-α (104 EU/ml). Secreted Embryonic Alkaline Phosphatase (SEAP) production was measured after 12 hours of treatment (FIG. 16A), 24 hours of treatment (FIG. 16 B) and 48 hours of treatment (FIG. 16 C). In the assays shown by FIGS. 17A, B and C, cells were treated for 1 hour with IFN-α (104 EU/ml) with further addition of the peptides. SEAP production was measured after (A) 12 hours of treatment (B), 24 hours of treatment and (C) 48 hours of treatment. IFN-α (104 EU/ml) was used as a positive control and rlL-10 (0.4 ng/ml) as a negative control. *P<0.05.
# TLR4 signaling pathway = TLR4 signaling pathway in HEK cells, SEAP production (IL-10 mimetic peptides); format: cell-based; conditions: cells pretreated with LPS 100 ng/ml, peptides added; 12 hours
# Description: as §1
# HEK cells were used to investigate the ability of the synthesized peptides Pep 1-IL10, Pep 2-IL10, Pep 3-IL10 and Pep 4-IL10 to modulate the activation of the TLR4 signaling pathway after 12 hours of treatment. […]
# In the assay shown by FIG. 14A cells were treated 1 hour with peptides and LPS (100 ng/ml) was added. SEAP production was measured after 12 hours of treatment. […] SEAP production was measured after 12 hours of treatment. […]
# [1] = system: TGF-β1 receptor on A549 cells; test: ELISA on cells of the A549 line using anti-TGF-β1 antibody; format: binding, human
# Description: The peptides described in this patent application were selected using the Phage Display (PD) methodology. The selection was performed by evaluating the ability of said peptides to recognize the TGF-β1 receptor on A549 cells, using an ELISA assay. MaxiSorp 96-well microtiter plates were coated with 1×10^6 cells diluted in PBS and incubated overnight at 4° C. Cells were blocked with 3% PBS-BSA for 1 h at 37° C., washed once with PBS and incubated with […] of each TGF-β1 mimetic peptide or 5 ng/ml of recombinant TGF-β1 for 1 h at 37° C. After washing, the plate was incubated for 1 h at 37° C. with anti-TGF-β1 antibody. The plate was washed and incubated with HRP-labeled anti-human IgG antibody for 1 h at 37° C. After washing, TMB substrate solution was added to the plate; the reaction was stopped by adding the 2N H2SO4 solution and read at 492 nm in a microplate reader.
# To investigate whether the synthesized peptides could bind to cell receptors, an ELISA assay was performed on cells of the A549 line using commercial anti-TGF-β1 antibody.
# [2] = system: mice sensitized by Phl p5; test: murine sensitization model with recombinant Phl p5: antibody response; format: in vivo
# Description: We then tested the ability of the synthesized TGF-β1 mimetic peptides to modulate the in vivo immune response during allergic sensitization to Phl p 5. We selected as an example Pep 2-TGF-β1 to show the results. […] Therefore, Pep 2-TGF-β1 modulated Phl p5-specific antibody responses in mice.
# [3] = system: splenocytes of mice sensitized with Phl p 5; test: ELISPOT of splenocytes stimulated with Phl p5; format: in vivo
# Description: (§2) To determine the number of splenic cells producing IFN-g, IL-4 and IL-10 in all groups of mice, an ELISPOT assay was performed. […] To investigate the cytokine profile in supernatants from restimulated splenocytes, a Luminex Multiplex cytokine analysis kit was used. […] Furthermore, an increase in IL-10 levels was observed.
# [4] = system: splenocytes of mice sensitized with Phl p 5; test: Luminex Multiplex cytokine analysis of supernatants from restimulated splenocytes; format: in vivo
# Description: as §2
# Treg cells = test: flow cytometry of CD4+CD25+Foxp3+ cells in splenocytes from BALB/c mice; format: in vivo
# Description: To investigate the influence of synthesized peptides mimetic to TGF-β1 on Treg induction specific to Phl p5 during allergic sensitization, we analyzed splenocytes from BALB/c mice using flow cytometry. We sought to investigate CD4+CD25+Foxp3+cells expressing GATA3, CTLA4 or KI67, as these factors are necessary for the survival and function of Treg cells. […] The percentage of CD4+CD25+Foxp3+T cells expressing the CTLA4 factor in mice without sensitization and sensitized with Phl p 5 was 5.62% and 9.46%, respectively, while in mice treated with Pep 2-TGF-β1 this value was 12.5% (FIG. 10C-D).
# [5] = system: TH2 polarization in skin-draining inguinal lymph node cells; test: TH2 polarization in IL-4 reporter (4get) mice, GFP+CD4+ lymphocytes by flow cytometry; format: in vivo; conditions: 5 days after immunization, administered with grass pollen extract
# Description: TH2 lymphocytes produce cytokines such as IL-4, IL-5 and IL-13 and lead to the class shift of immunoglobulin production from B cells to IgE, which triggers the allergic reaction. To investigate whether synthesized peptides mimetic to TGF-β1 can modulate TH2 polarization in the presence of grass pollen extract or rPhl p 5, we used an IL-4 reporter mouse. 4get mice express GFP as part of a bicistronic IL-4-IRES-GFP mRNA, allowing the identification of cells expressing IL-4 in situ during an allergen-induced TH2 response. In this experiment, we use skin-draining inguinal lymph node cells to monitor the TH2 response. […] In summary, in this IL-4 mice model, Pep 2 administered in combination with grass pollen extract was able to inhibit TH2 polarization in skin-draining inguinal lymph node cells.
substance,measurement,setting,value
"Pep 2-IL-10: synthetic peptide with affinity to the Interleukin-10 receptor, SEQ ID NO: 10, without disulfide bridge (HASSAVIKSSSGGGS)",induction of NFkB expression by peptides alone,NFkB pathway,not able to induce any response
same,modulation of the activation of the IFN signaling pathway,IFN signaling pathway,able to modulate the activation of the IFN signaling pathway
same,concentrations that significantly reduced TLR4 pathway activation,TLR4 signaling pathway,"100 μM (P<0.05), 1 μM (P<0.005), 0.5 μM (P<0.05), 0.1 μM (P<0.05), 0.05 μM (P<0.05) and 0.01 μM"
"Pep 2-TGF-β1: synthetic peptide with affinity to the TGF-β receptor, SEQ ID N 02, with disulfide bridges (HACESPLKRQCGGGS; disulfide 3-11)",recognition of receptor-bound peptide by anti-TGF-β1 antibody compared to recombinant TGF-β1,[1],in the same way that the antibody recognized the TGF-β1 recombinant molecule
same,degranulation of RBL cells sensitized with sera from treated mice vs Phl p 5 immunized group,"[2]; 1 μM, intradermal immunization with Phl p5",significantly lower levels of degranulation
same,serum IgA levels (ELISA),[2]; mice sensitized by Phl p5,increased levels of IgA
same,serum IgE levels (ELISA),[2]; mice sensitized by Phl p5,suppressed
same,serum IgG1 levels (ELISA),[2]; mice sensitized by Phl p5,suppressed
same,serum IgG2a levels (ELISA),"[2]; mice sensitized by Phl p5, not statistically significant",suppressed
same,IFN-g secreted by splenocytes (ELISPOT) vs untreated mice,[3],significantly lower
same,IL-4 secreted by splenocytes (ELISPOT) vs untreated mice,[3],significantly lower
same,IL-10 levels of splenocytes (ELISPOT) vs untreated mice,[3],significantly higher
same,IFN-g secretion in splenocyte supernatant vs untreated mice,[4],significantly lower
same,IL-2 secretion in splenocyte supernatant vs untreated mice,[4],significantly lower
same,IL-4 secretion in splenocyte supernatant vs untreated mice,[4],significantly lower
same,IL-5 secretion in splenocyte supernatant vs untreated mice,[4],significantly lower
same,IL-10 secretion in splenocyte supernatant vs untreated mice,[4],higher
same,IL-13 secretion in splenocyte supernatant vs untreated mice,[4],significantly lower
same,Treg cells expressing the factor GATA3 (of total T cells),"Treg cells; mice sensitized with Phl p5 and treated, control 16.1%, sensitized 16.2%",43.9%
same,percentage of CD4+CD25+Foxp3+T cells expressing the CTLA4 factor,"Treg cells; mice sensitized with Phl p5 and treated, no sensitization 5.62%, sensitized 9.46%",12.5%
same,percentage of CD4+CD25+Foxp3+cells expressing factor KI67,"Treg cells; vs Phl p5-sensitized mice, not significantly different",enriched
same,TH2 polarization (GFP+CD4+ lymphocytes),[5],suppressed TH2 polarization

# — patent publication US20220193185A1, “COMBINATION OF SYNTHETIC PEPTIDES WITH AFFINITY TO THE TGF-ß RECEPTOR AND WITH AFFINITY TO THE IL-10 RECEPTOR, PHARMACEUTICAL COMPOSITION AND THEIR USE AS IMMUNOMODULATORS IN THE TREATMENT OF AUTOIMMUNE, INFLAMMATORY OR ALLERGIC DISEASES” (Universidade Federal de Uberlândia, priority 2019, published 2022)
